Reference: PMC9721025, “Pharmacokinetic study of the main components of Tanreqing capsules and Tanreqing injections in beagles by liquid chromatography–tandem mass spectrometry” (Chinese Medicine, 2022)
Read-outs that look alike come from different tables or passages of the source.

How the values were obtained:
[1] = Stability of analytes in dog plasma (QC samples); format: in vitro ADME
Method: The stock solutions of all analytes were further mixed and diluted with methanol/water (10:90, v/v) solution to prepare the working solutions. […] The QC samples were stored in a refrigerator at – 80 °C until retrieval (see Additional file 1). The stability, which includes short-term stability (6 h at room temperature), long-term stability (− 80 °C for 30 days in the refrigerator), and freeze–thaw stability (three cycles from − 80 °C to room temperature), were assessed using QC samples at three concentration levels in three replicates. […] Similarly, there were no obvious effects on the analysis results of the samples with respect to short-term stability or long-term storage.

[2] = Pharmacokinetics in beagles, single-dose regimen of TRQI (i.v.) or TRQC (oral), plasma LC-MS/MS; format: in vivo, beagle; conditions: for AUC(0-t) / Cmax / Tmax / half-life: beagle, dog, plasma; for AUC(0-t): read-out: AUC0–24 h; for Cmax / Tmax / half-life: mean of six beagles
Method: (§1) 100 μL plasma sample was drawn and transferred to 1.5 mL centrifuge tube prior to 300 μL protein precipitant (3:1 [v/v] methanol/acetonitrile, containing 0.1% formic acid and 100 ng/mL IS) was added, and then the sample was vortex-mixed for 3 min. The mixture was centrifuged at 20,000 ×g for 10 min, and 100 μL supernatant was transferred to the injection vial and analyzed directly by LC–MS/MS.
(§2) This study was carried out in six beagles (three males and three females, 9.0–12.0 kg each), that were purchased from Junda Pet Hospital (Shanghai, China). This experimental protocol was approved by the Experimental Animal Ethics Committee of the Naval Military Medical University (Shanghai, China).
The six healthy beagles were divided into two groups: beagles 1–3 were all male and were assigned to the first group, and beagles 4–6 were all females and assigned to the second group. The two-cycle, crossover study was designed with a 7-day wash out period. For the single-administration process, the dogs in the first group were injected intravenously with 0.5 mL/kg TRQI (one-third of the normal daily dose), and blood samples were collected at 0, 5, 10, 15, 20, 30, and 45 min and then at 1, 2, 4, 6, 8, 12, and 24 h (a total of 14 time points) after injection. For each blood sample, 1 mL of blood was collected from the forelimb vein in heparin-treated tubes. The dogs in the second group were orally administrated 0.09 g/kg TRQC (one-third of the normal daily dose, and blood samples were collected in the same manner at 0, 10, 20, and 40 min and then at 1, 1.5, 2, 2.5, 3, 4, 6, 8, 12, and 24 h (a total of 14 time points). All blood samples were centrifuged at 4000 × g for 5 min, and each supernatant was collected and aliquoted. After a 7-day wash out period, the dogs in each group were administrated the other Tanreqing formulation in a crossover design, and blood samples were collected and processed in the same way.
(§3) All data obtained were analyzed using Drug and Statistics (DAS) 2.0 software (Chinese Society of Pharmacology), and a non-compartment analysis was used to calculate plasma pharmacokinetic parameters. The principal components of TRQI and TRQC were compared with an analysis of variance (ANOVA) and/or a two-tailed student-t test.

[3] = Pharmacokinetics in beagles, multiple-dose regimen (once per day for 7 days) of TRQI or TRQC, plasma LC-MS/MS; format: in vivo; conditions: beagle, dog; for Cmax at 7 days / Tmax at 7 days / half-life at 7 days: mean
Method: as §1, §2
After the end of the single-dose experiment, the dogs in group one were given 0.5 mL/kg injection of TRQI once per day for 7 days following the wash out period, and the dogs in group two were given 0.09 g/kg TRQC once per day for 7 days. After the seventh administration, blood samples were collected at 0, 10, 20, and 40 min and then at 1, 1.5, 2, 2.5, 3, 4, 6, 8, 12, and 24 h (a total of 14 time points) and were processed as described in “Single-dose regimen” section. The resulting plasma samples were used to determine the steady-state plasma concentration of TRQI and TRQC. A crossover study was again carried out in both groups, as described in “Single-dose regimen” section, after a 7-day washing period.
as §3

[4] = cited from earlier work; for t1/2: Tanreqing injection
[5] = n = 3, high QC: nominal 200 ng/mL baicalin, 1000 ursodeoxycholic acid, 100 chenodeoxycholic acid and chlorogenic acid
[6] = n = 3, low QC: nominal 4 ng/mL baicalin, 20 ursodeoxycholic acid, 2 chenodeoxycholic acid and chlorogenic acid
[7] = n = 3, middle QC: nominal 20 ng/mL baicalin, 100 ursodeoxycholic acid, 10 chenodeoxycholic acid and chlorogenic acid
[8] = both sexes, iv, single i.v. dose of TRQI 0.5 mL/kg
[9] = both sexes, single oral dose of TRQC 0.09 g/kg
[10] = both sexes, iv, TRQI 0.5 mL/kg once per day for 7 days
[11] = both sexes, po, TRQC 0.09 g/kg once per day for 7 days

Structure (SMILES): O=C(O)[C@H]1O[C@@H](Oc2cc3oc(-c4ccccc4)cc(=O)c3c(O)c2O)[C@H](O)[C@@H](O)[C@@H]1O [Baicalin, baicalin]
- Freeze-thaw stability (3 cycles) Mean ± S.D. concentration [1, 5]: 202.81 ± 10.87 ng/mL
- Long-term stability (30 days at – 80 °C) Mean ± S.D. concentration [1, 5]: 175.01 ± 4.57 ng/mL
- Short-term stability (6 h at room temperature) Mean ± S.D concentration [1, 5]: 182.83 ± 7.72 ng/mL
- Freeze-thaw stability (3 cycles) Mean ± S.D. concentration [1, 6]: 3.97 ± 0.36 ng/mL
- Long-term stability (30 days at – 80 °C) Mean ± S.D. concentration [1, 6]: 3.50 ± 0.07 ng/mL
- Short-term stability (6 h at room temperature) Mean ± S.D concentration [1, 6]: 4.01 ± 0.31 ng/mL
- Freeze-thaw stability (3 cycles) Mean ± S.D. concentration [1, 7]: 17.88 ± 0.92 ng/mL
- Long-term stability (30 days at – 80 °C) Mean ± S.D. concentration [1, 7]: 17.47 ± 0.42 ng/mL
- Short-term stability (6 h at room temperature) Mean ± S.D concentration [1, 7]: 18.43 ± 0.75 ng/mL
- oral availability ([2]; TRQC in dogs): small
- AUC(0-t) ([2]; both sexes, iv, 0.5 mL/kg, single TRQI 0.5 mL/kg, Mean): 44.4 ng·h/mL
- Cmax [2, 8]: 1050 ng/mL
- Tmax [2, 8]: 0.08 h
- half-life [2, 8]: 6.75 h
- AUC(0-t) ([2]; both sexes, po, 0.09 g/kg, single TRQCs 0.09 g/kg, Mean): 14.1 ng·h/mL
- Cmax [2, 9]: 4.79 ng/mL
- Tmax [2, 9]: 3.78 h
- half-life [2, 9]: 4.97 h
- AUC(0-t) ([2]; female, iv, 0.5 mL/kg, single TRQI 0.5 mL/kg, beagle No 4): 161 ng·h/mL
- AUC(0-t) ([2]; female, iv, 0.5 mL/kg, single TRQI 0.5 mL/kg, beagle No 5): 1.98 ng·h/mL
- AUC(0-t) ([2]; female, iv, 0.5 mL/kg, single TRQI 0.5 mL/kg, beagle No 6): 39.9 ng·h/mL
- AUC(0-t) ([2]; female, po, 0.09 g/kg, single TRQCs 0.09 g/kg, beagle No 4): 15.6 ng·h/mL
- AUC(0-t) ([2]; female, po, 0.09 g/kg, single TRQCs 0.09 g/kg, beagle No 5): 1.15 ng·h/mL
- AUC(0-t) ([2]; female, po, 0.09 g/kg, single TRQCs 0.09 g/kg, beagle No 6): 3.38 ng·h/mL
- AUC(0-t) ([2]; male, iv, 0.5 mL/kg, single TRQI 0.5 mL/kg, beagle No 1): 44.5 ng·h/mL
- AUC(0-t) ([2]; male, iv, 0.5 mL/kg, single TRQI 0.5 mL/kg, beagle No 2): 18.7 ng·h/mL
- AUC(0-t) ([2]; male, iv, 0.5 mL/kg, single TRQI 0.5 mL/kg, beagle No 3): 0.47 ng·h/mL
- AUC(0-t) ([2]; male, po, 0.09 g/kg, single TRQCs 0.09 g/kg, beagle No 1): 16 ng·h/mL
- AUC(0-t) ([2]; male, po, 0.09 g/kg, single TRQCs 0.09 g/kg, beagle No 2): 36.4 ng·h/mL
- AUC(0-t) ([2]; male, po, 0.09 g/kg, single TRQCs 0.09 g/kg, beagle No 3): 11.8 ng·h/mL
- AUC(0-inf) ([3]; both sexes, iv, 0.5 mL/kg, TRQI 0.5 mL/kg for 7 days, Mean): 548 ng·h/mL
- AUC(0-t) ([3]; both sexes, iv, 0.5 mL/kg, TRQI 0.5 mL/kg for 7 days, Mean, read-out: AUC0–24 h): 395 ng·h/mL
- Cmax at 7 days [3, 10]: 1370 ng/mL
- Tmax at 7 days [3, 10]: 0.11 h
- half-life at 7 days [3, 10]: 5.54 h
- AUC(0-inf) ([3]; both sexes, po, 0.09 g/kg, TRQC 0.09 g/kg for 7 days, Mean): 142 ng·h/mL
- AUC(0-t) ([3]; both sexes, po, 0.09 g/kg, TRQC 0.09 g/kg for 7 days, Mean, read-out: AUC0–24 h): 107 ng·h/mL
- Cmax at 7 days [3, 11]: 12.2 ng/mL
- Tmax at 7 days [3, 11]: 7.25 h
- half-life at 7 days [3, 11]: 12.1 h
- AUC(0-inf) ([3]; female, iv, 0.5 mL/kg, TRQI 0.5 mL/kg for 7 days, beagle No. 4): 670 ng·h/mL
- AUC(0-t) ([3]; female, iv, 0.5 mL/kg, TRQI 0.5 mL/kg for 7 days, beagle No. 4, read-out: AUC0–24 h): 527 ng·h/mL
- AUC(0-inf) ([3]; female, iv, 0.5 mL/kg, TRQI 0.5 mL/kg for 7 days, beagle No. 5): 711 ng·h/mL
- AUC(0-t) ([3]; female, iv, 0.5 mL/kg, TRQI 0.5 mL/kg for 7 days, beagle No. 5, read-out: AUC0–24 h): 526 ng·h/mL
- AUC(0-inf) ([3]; female, iv, 0.5 mL/kg, TRQI 0.5 mL/kg for 7 days, beagle No. 6): 1290 ng·h/mL
- AUC(0-t) ([3]; female, iv, 0.5 mL/kg, TRQI 0.5 mL/kg for 7 days, beagle No. 6, read-out: AUC0–24 h): 865 ng·h/mL
- AUC(0-inf) ([3]; female, po, 0.09 g/kg, TRQC 0.09 g/kg for 7 days, beagle No. 4): 88.3 ng·h/mL
- AUC(0-t) ([3]; female, po, 0.09 g/kg, TRQC 0.09 g/kg for 7 days, beagle No. 4, read-out: AUC0–24 h): 68 ng·h/mL
- AUC(0-inf) ([3]; female, po, 0.09 g/kg, TRQC 0.09 g/kg for 7 days, beagle No. 5): 398 ng·h/mL
- AUC(0-t) ([3]; female, po, 0.09 g/kg, TRQC 0.09 g/kg for 7 days, beagle No. 5, read-out: AUC0–24 h): 245 ng·h/mL
- AUC(0-inf) ([3]; female, po, 0.09 g/kg, TRQC 0.09 g/kg for 7 days, beagle No. 6): 44.3 ng·h/mL
- AUC(0-t) ([3]; female, po, 0.09 g/kg, TRQC 0.09 g/kg for 7 days, beagle No. 6, read-out: AUC0–24 h): 32.5 ng·h/mL
- AUC(0-inf) ([3]; male, iv, 0.5 mL/kg, TRQI 0.5 mL/kg for 7 days, beagle No. 1): 45.8 ng·h/mL
- AUC(0-t) ([3]; male, iv, 0.5 mL/kg, TRQI 0.5 mL/kg for 7 days, beagle No. 1, read-out: AUC0–24 h): 42.6 ng·h/mL
- AUC(0-inf) ([3]; male, iv, 0.5 mL/kg, TRQI 0.5 mL/kg for 7 days, beagle No. 2): 534 ng·h/mL
- AUC(0-t) ([3]; male, iv, 0.5 mL/kg, TRQI 0.5 mL/kg for 7 days, beagle No. 2, read-out: AUC0–24 h): 370 ng·h/mL
- AUC(0-inf) ([3]; male, iv, 0.5 mL/kg, TRQI 0.5 mL/kg for 7 days, beagle No. 3): 37.6 ng·h/mL
- AUC(0-t) ([3]; male, iv, 0.5 mL/kg, TRQI 0.5 mL/kg for 7 days, beagle No. 3, read-out: AUC0–24 h): 36.8 ng·h/mL
- AUC(0-inf) ([3]; male, po, 0.09 g/kg, TRQC 0.09 g/kg for 7 days, beagle No. 1): 80.5 ng·h/mL
- AUC(0-t) ([3]; male, po, 0.09 g/kg, TRQC 0.09 g/kg for 7 days, beagle No. 1, read-out: AUC0–24 h): 79.6 ng·h/mL
- AUC(0-inf) ([3]; male, po, 0.09 g/kg, TRQC 0.09 g/kg for 7 days, beagle No. 2): 164 ng·h/mL
- AUC(0-t) ([3]; male, po, 0.09 g/kg, TRQC 0.09 g/kg for 7 days, beagle No. 2, read-out: AUC0–24 h): 149 ng·h/mL
- AUC(0-inf) ([3]; male, po, 0.09 g/kg, TRQC 0.09 g/kg for 7 days, beagle No. 3): 74.3 ng·h/mL
- AUC(0-t) ([3]; male, po, 0.09 g/kg, TRQC 0.09 g/kg for 7 days, beagle No. 3, read-out: AUC0–24 h): 69.7 ng·h/mL
- t1/2 ([4]; Hu's study): 0.8 h
- t1/2 ([4]; another study): 3.6 h
- clearance rate ([4]; rat, TRQI): 24.3 mL/min/kg
- volume of distribution ([4]; rat, TRQI): 1.07 L/kg
